# Test results from the supplement of paper PMC10307832.
# Assays:
# Assay in all cases: relative viability (nuclei count vs DMSO), 5 days (fraction); higher = more cells survive
# [1] = compound: CC1=CSC(=NC2CCCCC2)N1/N=C/C3=C(C(=C(C=C3)O)O)O [MIM1]
# In short: (§1)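 Only plates meeting two conditions passed: control CV below 25% and at least one doubling. Lung cancer cell lines, kept overnight at 37 °C in 1536-well plates, were pinned with five library-drug doses (not always all listed) √10 apart on vehicle-anchored plates and grown 5 days without medium change. A one-step fix, permeabilisation and Hoechst stain preceded 4× imaging and MetaXpress nuclear counting. Viability equals treated-well nuclei divided by vehicle-well nuclei, as the median over plates.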
# [2] = compound: CCNC(=O)c1noc(-c2cc(C(C)C)c(O)cc2O)c1-c1ccc(CN2CCOCC2)cc1 [Luminespib]
# In short: as §1
# [3] = compound: CN1CCN(CCOc2cc(OC3CCOCC3)c3c(Nc4c(Cl)ccc5c4OCO5)ncnc3c2)CC1 [Saracatinib]
# In short: as §1
# [4] = compound: Cc1cn(-c2cc(NC(=O)c3ccc(C)c(Nc4nccc(-c5cccnc5)n4)c3)cc(C(F)(F)F)c2)cn1 [Nilotinib]
# In short: as §1
# [5] = compound: Nc1cccc2c1CN(C1CCC(=O)NC1=O)C2=O [Lenalidomide]
# In short: as §1
Cell Line,relative viability ([1]; 0.2 µM),relative viability ([1]; 0.6325 µM),relative viability ([1]; 2 µM),relative viability ([1]; 6.325 µM),relative viability ([1]; 20 µM),relative viability ([2]; 0.002 µM),relative viability ([2]; 0.006325 µM),"relative viability ([2]; 0.01 µM, anchor plate)",relative viability ([2]; 0.02 µM),relative viability ([2]; 0.06325 µM),relative viability ([2]; 0.2 µM),relative viability ([3]; 0.02 µM),relative viability ([3]; 0.2 µM),relative viability ([3]; 0.6325 µM),relative viability ([3]; 2 µM),relative viability ([4]; 0.003162 µM),relative viability ([4]; 0.01 µM),relative viability ([4]; 0.03162 µM),relative viability ([4]; 0.1 µM),relative viability ([5]; 0.253 µM),relative viability ([5]; 0.8 µM),relative viability ([5]; 2.53 µM),relative viability ([5]; 8 µM),relative viability ([4]; 0.001 µM)
201T,1,1,0.987,0.555,0.483,0.973,0.896,1.06,0.88,0.969,0.295,0.99,0.826,0.923,0.722,1.11,0.979,1.02,0.47,0.985,0.835,1.01,0.96,–
A549,0.967,0.933,0.946,0.782,0.333,1.04,0.923,–,0.432,0.085,0.0435,1.04,0.81,1.09,0.898,1.21,1.1,0.739,0.665,0.986,0.97,1.13,0.954,0.948
A-427,1.05,0.746,0.973,0.783,0.218,1.06,0.906,1.03,0.793,0.395,0.244,1.03,0.904,0.935,0.924,1.06,1.08,0.871,0.182,1.04,0.979,1.15,0.918,0.955
ABC-1,0.902,1.15,0.9,0.485,0.264,0.993,0.865,0.718,0.63,0.239,0.2,0.942,0.811,1,0.899,0.907,1.05,0.78,0.322,1.01,0.774,0.993,0.825,1
BEN,1.02,0.914,1.01,0.853,0.323,0.944,0.925,0.383,0.442,0.656,0.355,1.11,0.755,1.05,0.759,1.03,0.929,0.926,0.786,1.09,0.892,1.12,0.731,0.876
CAL-12T,1.05,0.819,0.92,0.708,0.434,1.03,0.933,0.47,0.591,0.136,0.13,1.06,0.996,1.14,0.903,0.91,–,0.688,0.654,0.979,1.04,1.27,1.16,0.928
COR-L23,0.995,1.11,1.01,0.77,0.424,1.14,0.913,0.672,0.925,0.091,0.0907,1.05,0.856,0.905,0.975,1.34,1.2,0.704,0.768,1.01,0.957,1.2,1.22,0.877
COR-L 105,1,0.878,0.986,0.769,0.412,0.873,0.913,0.822,0.627,0.232,0.24,1.08,0.868,0.769,0.542,0.915,1.13,0.87,0.845,0.976,0.971,1.05,1.01,1.11
Calu-6,1.03,0.928,0.967,0.444,0.242,1.03,0.892,–,0.899,0.136,0.122,0.923,0.902,0.926,0.755,1.07,1.09,0.781,0.891,0.973,1.02,1.09,1.02,0.937
ChaGo-K-1,0.995,0.896,0.971,0.738,0.235,1.07,1.01,0.666,0.978,0.816,0.335,0.992,0.807,1.05,0.927,1.16,1.11,0.789,0.532,0.946,1.05,1.04,1.01,0.926
EBC-1,1.02,0.995,0.981,0.682,0.471,0.984,0.877,–,0.326,0.128,0.142,1.1,0.933,1.11,1.08,1.16,1.1,0.679,0.725,1.03,1.04,1.1,0.955,0.818
EKVX,0.94,1,0.881,0.604,0.511,0.956,0.724,0.851,0.655,0.878,0.356,1.03,0.738,0.966,0.631,1.16,1.15,0.854,0.659,0.988,0.803,1.05,0.846,0.823
EMC-BAC-2,1.03,0.727,0.968,0.816,0.296,1,0.553,1.18,0.648,0.665,0.302,0.952,0.943,0.856,0.763,0.915,0.956,0.857,0.731,1.15,0.863,1,0.493,0.951
EPLC-272H,0.969,0.888,0.934,0.593,0.162,0.82,0.887,0.301,0.557,0.496,0.123,0.974,0.881,1.09,0.786,0.94,0.92,0.676,0.37,1.11,0.741,1.07,0.754,0.894
H3255,0.952,0.882,0.891,0.724,0.35,0.969,0.808,0.933,0.702,0.834,0.346,1.04,0.851,0.989,0.348,0.971,–,0.877,0.907,0.983,0.969,1.05,0.882,0.937
HARA,0.903,0.961,0.998,0.365,0.225,0.862,0.784,0.834,0.878,0.783,0.131,0.979,0.852,1.14,0.561,0.981,0.948,0.647,0.569,1.11,–,1.13,1.05,0.983
HCC-15,0.997,0.717,1.08,0.425,0.105,0.967,0.923,0.388,0.943,0.33,0.128,0.982,0.888,1.07,0.99,1.18,1.15,0.761,0.496,1.02,0.877,1.21,0.854,0.909
HCC-44,1.01,0.969,0.661,0.604,0.203,0.969,1.01,1.09,0.997,0.55,0.225,1.06,0.878,1.04,1.03,0.921,0.93,0.949,0.722,1.01,0.68,0.992,0.78,1
HCC-78,1.07,0.549,0.888,0.677,0.424,0.869,0.72,–,–,0.999,0.4,0.956,0.815,1.08,0.834,0.937,1.07,0.84,0.746,0.885,0.861,0.957,0.618,1.06
HCC-366,0.991,–,0.973,0.216,0.0492,0.988,0.987,–,0.998,0.0511,0.053,1.07,0.731,0.952,0.77,1.12,1.24,0.971,0.527,1.02,0.989,1.07,0.934,0.982
HCC-827,1.01,0.994,1.03,0.367,0.39,1.06,1,0.647,0.984,1.03,0.235,1.02,0.813,0.366,0.188,1.09,1.07,1.03,1.06,1.04,0.99,1.05,1.1,1.02
HOP-62,1.02,0.942,0.782,0.74,0.204,1.05,0.969,0.912,1.01,0.659,0.249,1.02,0.968,1.19,1.14,0.958,0.948,0.698,0.462,0.943,0.963,1.05,0.93,0.953
IA-LM,0.976,0.935,0.896,0.345,0.157,1.06,0.884,–,0.678,0.0695,0.0432,0.983,0.848,1.46,1,0.793,1.07,0.789,0.909,0.985,0.859,1.05,0.942,0.835
LC-2-ad,0.991,0.699,0.944,0.428,0.231,0.95,0.936,1.03,0.915,0.561,0.207,1.05,0.978,1.15,0.944,1.15,1.15,0.912,0.479,1.04,0.862,1.08,1.02,0.95
LCLC-97TM1,1.02,0.767,0.703,0.456,0.144,0.878,0.814,0.77,0.466,0.528,0.0858,0.986,0.712,1.19,0.974,0.984,1.06,0.834,0.368,0.943,0.932,1.05,0.616,–
LCLC-103H,1.02,0.976,0.973,0.742,0.53,0.982,1.01,0.954,0.941,1.02,0.83,0.944,0.884,1.02,0.963,1.08,1.12,0.975,0.804,0.97,1,0.988,0.783,1.01
LK-2,1.01,1.04,0.858,0.957,0.262,1.03,1.02,0.204,0.556,0.258,0.154,0.925,0.823,0.788,0.484,0.903,1.08,0.729,0.875,0.985,0.956,1.14,0.906,0.89
LOU-NH91,0.863,0.903,0.809,0.758,0.394,0.995,0.922,0.364,0.717,0.334,0.376,0.945,0.741,0.834,0.66,0.944,0.973,0.981,0.967,1,0.873,0.95,0.905,0.961
